In US12352767B2, “Method of treating cognitive decline associated with neurological diseases based on a decrease in FLT4 expression or activity” (University of Virginia Patent Foundation, priority 2018, dated 2025):
Entries after “also recorded” stand apart in the source; their conditions may differ.

Columns and labels:
J20 mice = experiment: Amyloid pathology in meninges and hippocampus of J20 mice (Aβ immunostaining); assay type: in vivo
Protocol: Male or female wild-type mice (C57BL/6J background) were either bred in-house, purchased from the Jackson Laboratory (Bar Harbor, Maine, USA) or provided by the National Institutes of Health/National Institute on Aging (Bethesda, MD, USA). All mice were maintained in the animal facility for habituation for at least 1 week prior to the start of the manipulation/experimentation. C57BL/6J wild-type mice were tested at 2-3, 12-14 and 20-24 months of age. Male hemizygous B6.Cg-Tg(PDGFB-APPSwInd)20Lms/2Mmjax (J20, JAX stock #006293) and B6.Cg-Tg(APPSwFILon,PSEN1*M146L*L286V)6799Vas/Mmjax (5×FAD, JAX stock #008730) were purchased from the Jackson Laboratory and bred in-house on a C57BL/6J background. […] 5×FAD hemizygous mice overexpress the transgene constructs under neural-specific elements of the mouse thymocyte differentiation antigen 1 promoter and present accelerated accumulation of Aβ42 and deposition of amyloid and gliosis in the brain starting at 2 months of age, with dramatic amyloid plaque load without major behavioral deficits at 5 months^45. In-house bred male transgene carriers and non-carrier (WT) littermates were used at different ages that are indicated throughout the manuscript. […]

[1] = tested on: meningeal lymphatic vessels; experiment: Meningeal whole-mount immunostaining (LYVE-1/CD31): lymphatic vessel area and diameter, blood vessel coverage
Protocol: Selective ablation of the meningeal lymphatic vessels was achieved by i.c.m. injection and transcranial photoconversion of Visudyne® (verteporfin for injection, Valeant Ophtalmics). Visudyne was reconstituted following manufacturer instructions and 5 μL was injected i.c.m. following the previously described procedure. […] Each spot was irradiated with a light dose of 50 J/cm^2 at an intensity of 600 mW/cm^2 for a total of 83 s. Controls were injected with the same volume of Visudyne (without the photoconversion step) or sterile saline plus photoconversion (vehicle/photoconversion). The scalp skin was then sutured, the mice were subcutaneously injected with ketoprofen (2 mg/Kg) and allowed to recover on a heating pad until fully awake.
A hydrogel of 1.4% hyaluronic acid and 3% methylcellulose alone (vehicle) or with 200 ng/mL of encapsulated human VEGF-C (PeproTech) or VEGF-C156S (R&D Systems) was prepared as described elsewhere^49. Briefly, lyophilized, sterile methylcellulose (4000 cP, Sigma-Aldrich) and sterile hyaluronic acid (1500-1800 kDa, Sigma-Aldrich) were sequentially dissolved in sterile 0.1 M phosphate buffered saline (PBS) at 4° C. overnight. Lyophilized VEGF-C or VEGF-C156S were resuspended as particulate at 2000 ng/mL in 0.5% sterile methylcellulose in PBS. The particulate solution, or vehicle 0.5% methylcellulose, was mixed into the hydrogel pre-solution at 1:10, and loaded into a syringe for gelation at 37° C. […] The hydrogels were prepared on the day of the experiment and kept warm inside the individual syringes until applied onto the mouse's skull. […] An incision was made in the scalp skin and the skull was thinned at the junction of all sinuses and above the transverse sinus. The shear-thinning properties of the polymers allowed the extrusion of 100 μL of each hydrogel solution from the syringe into the thinned skull surface. The scalp skin was then sutured on top of the solidified hydrogel, the mice were subcutaneously injected with ketoprofen (2 mg/Kg) and allowed to recover on a heating pad until fully awake.
Mice were given a lethal dose of anesthetics by intraperitoneal (i.p.) injection of Euthasol (10% v/v in saline). When needed, CSF was collected from the cisterna magna using a 0.5 mm diameter borosilicate glass pipette with internal filament and immediately stored at −80° C. Mice were then transcardially perfused with ice cold PBS with heparin (10 U/mL). Deep cervical lymph nodes were dissected and drop fixed in 4% paraformaldehyde (PFA) for 12 hours at 4° C. After stripping the skin and muscle from the bone the head was collected and drop fixed in 4% PFA. […] The brains were kept in 4% PFA for additional 24 hours (48 hours in total). […]

mice = experiment: Contextual fear conditioning test; assay type: in vivo; details: Visudyne/photoconversion twice
Protocol: This behavioral test was performed following a published protocol^53 with modifications. In this associative learning task, mice are presented with a neutral conditioned cue stimulus that is paired with an aversive unconditioned stimulus in a particular context. The mice learn that the chamber context and the cue stimulus predict the aversive stimulus and elicit a specific behavioral response, namely freezing. Mice were brought into the testing room to acclimate for at least 30 minutes before testing. For the test, we used two Habitest® chambers (Coulbourn Instruments, Allentown, PA, USA) with stainless grid floors attached to a shock generator for foot shock delivery and dimly illuminated with a white fluorescent light bulb. The chambers were cleaned and made odor-free before starting the experiment and between each session (or each mouse). The fear conditioning test was conducted over 2 days. […] On day 2, mice were tested and scored for conditioned fear to the training context for 3 minutes (context test), but with no presentation of the cue stimulus. […] Mice behaviour was recorded by a digital video camera mounted above the conditioning chamber and freezing was manually scored by a blinded experimenter using the Etholog V2.2 software. Parameters analysed included the percentage of time freezing during the 3 minutes of the context test and the last 3 minutes of the cued test.

verteporfin [Visudyne]
Aβ aggregates / amyloid deposition in the meninges (J20 mice; Visudyne/photoconversion every 3 weeks for 3 months): Aβ aggregates had formed in the meninges; also recorded: marked amyloid deposition
Aβ plaque load (coverage) in the hippocampi (J20 mice; Visudyne/photoconversion for 3 months vs vehicle): significantly increased; also recorded: statistically significant increase in coverage
ablation of meningeal lymphatics (LYVE-1+ lymphatic vessels) ([1]; Visudyne 5 μL i.c.m. + transcranial photoconversion, adult mice): loss of meningeal vessel staining; also recorded: effective ablation of meningeal lymphatics
duration of meningeal lymphatic ablation ([1]; Visudyne i.c.m. + transcranial photoconversion): at least 7 days
CFC context test (mice; adult mice): no differences between groups
CFC cued test (mice; vs control groups): statistically significant difference
